Data set [1] is described as follows: Human Plasma Protein Binding (Test B). The following applies: fraction unbound (fu). It counts as in vitro ADME. A digest of the protocol:
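Human plasma protein binding run per the published Wernevik et al. (2020) integrated DMPK panel protocol. Values are fraction unbound (fu, % free); repeat runs averaged arithmetically.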

The nature of data set [2]: Human Liver Microsomal Stability (Test C). It counts as in vitro ADME. The conditions noted are these: for microsomal CLint: human, liver microsomes. A digest of the protocol:
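Human liver microsome incubation per the Wernevik et al. integrated DMPK panel protocol. Intrinsic clearance reported as CLint in μl/min/mg protein, averaged arithmetically over repeat runs.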
(Liver microsomes are a subcellular fraction often used to study metabolism.)

The nature of data set [3]: Human Hepatocyte Stability (Test D). It counts as in vitro ADME. The following applies: geometric mean if run multiple times; for hepatocyte CLint at 1 µM: human, cryopreserved pooled human hepatocytes (LiverPool 10-Donor). A digest of the protocol:
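Pooled 10-donor cryopreserved human hepatocytes (≥80% viable) in L-15 medium at 0.25×10^6 cells per 0.25 mL well. Compound added from 100 μM acetonitrile solution; incubated at 37 °C with shaking, acetonitrile-quenched, LC-MS analysed. Clint (μL/min/10^6 cells) from ln % parent vs time slope; geometric mean of repeat runs.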

Data set [4] is described as follows: Rat Hepatocyte Stability (Test E). It counts as in vitro ADME. The conditions noted are these: geometric mean if run multiple times; for hepatocyte CLint: rat, hepatocytes. A digest of the protocol:
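Run per the published AstraZeneca-type rat hepatocyte stability protocol (Wernevik et al. panel). Values are mean intrinsic clearance, Clint in μl/min/10^6 cells; geometric mean used for repeated runs.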

A short description of data set [5]: Solubility (Test F). It counts as physicochemical. The following applies: arithmetic mean if run multiple times. How it is done: The assay was conducted according to the Solubility Assay described in pages 164-167 of Wernevik, J. et al., “A Fully Integrated Assay Panel for Early Drug Metabolism and Pharmacokinetics Profiling”, Assay and Drug Development Technologies, 2020, 18(4), 157-179. Data are reported in Table 36 as solubility ([…]. Where the assay was run multiple times for the same compound, the arithmetic mean is reported.

Data set [6] has as its target T1, human RXFP1 (Homo sapiens, UniProt Q9HBX9).
T1 sequence (Q9HBX9 1-757): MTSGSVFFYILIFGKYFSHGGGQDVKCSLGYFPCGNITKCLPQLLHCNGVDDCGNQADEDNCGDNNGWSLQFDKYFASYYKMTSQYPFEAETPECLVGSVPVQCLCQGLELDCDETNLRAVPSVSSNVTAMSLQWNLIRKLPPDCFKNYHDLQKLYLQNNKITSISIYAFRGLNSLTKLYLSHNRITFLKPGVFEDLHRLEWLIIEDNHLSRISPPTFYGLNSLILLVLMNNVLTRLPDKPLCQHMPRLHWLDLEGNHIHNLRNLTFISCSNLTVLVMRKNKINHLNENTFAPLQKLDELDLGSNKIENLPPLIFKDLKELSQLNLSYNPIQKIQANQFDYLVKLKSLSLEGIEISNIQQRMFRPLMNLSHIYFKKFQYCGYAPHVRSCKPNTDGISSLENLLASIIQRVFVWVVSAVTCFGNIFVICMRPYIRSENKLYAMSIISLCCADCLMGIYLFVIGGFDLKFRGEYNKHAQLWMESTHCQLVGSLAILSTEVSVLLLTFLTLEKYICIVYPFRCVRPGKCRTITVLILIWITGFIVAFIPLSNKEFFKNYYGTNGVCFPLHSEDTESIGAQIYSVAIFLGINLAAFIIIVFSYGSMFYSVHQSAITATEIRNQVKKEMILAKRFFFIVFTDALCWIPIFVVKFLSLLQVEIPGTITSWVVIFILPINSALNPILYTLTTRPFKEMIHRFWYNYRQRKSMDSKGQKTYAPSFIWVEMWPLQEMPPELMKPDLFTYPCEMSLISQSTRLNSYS
The data set is described as follows: RXFP1 Hu cAMP (Test A). The arrangement: expressed in transfected cells; host or cells: Jump-In T-REx CHO-K1 cells (ThermoFisher), induced with 10 ng/ml doxycycline for 24 h. It counts as cell-based. A digest of the protocol: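 Cells: CHO-K1 stably carrying human RXFP1, expressed after 24 h 10 ng/ml doxycycline; 0.5 mM IBMX final, HTRF detection after 2 h at room temperature.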

Where [7] appears, read: RXFP1 Hu cAMP, read-out: Test A EC50.

In brackets after ≈: the same amount, converted by molar mass. Where two headings read alike, the source gives them in different places. Some results are limits rather than exact numbers.

A word on the solubility: it is the dissolved amount per volume that the medium holds. Read a low solubility as little dissolved substance. A word on the EC50: it is the concentration at which the effect is half-maximal. With `COc1cc(F)c(O[C@H]2CC[C@@](C)(C(N)=O)CC2)cc1C(=O)N[C@@H]1[C@H]2CC[C@H](C2)[C@@H]1C(=O)NCC1(F)CCOCC1` [Example 147, (1R,2S,3R,4S)-3-(5-(((1s,4S)-4-Carbamoyl-4-methylcyclohexyl)oxy)-4-fluoro-2-methoxybenzamido)-N-((4-fluorotetrahydro-2H-pyran-4-yl)methyl)bicyclo-[2.2.1]heptane-2-carboxamide], the “Test B Human Plasma Protein Binding (% free)” value in data set [1] is reported as 36 % free. Also, in data set [2] (human liver microsomes), the “Test C Human Liver Microsomal Stability Clint” value stood at 88 µL/min/mg. Also, the “Test D Human Hepatocyte Stability Clint” value in data set [3] (human hepatocytes) was found to be 6.1 μL/min/10^6 cells. Further, the “Test E Rat Hepatocyte Stability Clint” value in data set [4] (rat hepatocytes) came out at 67 μL/min/10^6 cells. This compound also returned a solubility in data set [5] of 1000 µM (≈ 578 µg/mL). The “Test A Sinf” value in data set [6] (RXFP1 Hu cAMP) is given as 111%. For the same compound, the EC50 in data set [6] (setting [7]) is over 4200 nM.
Usually microsomal CLint stands for a measure of how fast metabolising enzymes remove a compound, apart from limits set by blood flow. Read a low microsomal CLint as slow turnover. One may read the hepatocyte CLint as the capacity of the preparation to metabolise the compound, expressed as a volume cleared per time. A low value points to greater metabolic stability. Regarding `COc1cc(F)c(O[C@H]2CC[C@@](C)(C(=O)O)CC2)cc1C(=O)Nc1cnccc1C(=O)NCC1(C)CCC1` [Example 150, (1s,4s)-4-(2-Fluoro-4-methoxy-5-((4-(((1-methylcyclobutyl)methyl)carbamoyl)pyridin-3-yl)carbamoyl)phenoxy)-1-methylcyclohexane-1-carboxylic acid], the “Test B Human Plasma Protein Binding (% free)” value in data set [1] came to 1.8 % free. In data set [2], this compound yielded a microsomal CLint of under 3 µL/min/mg. Further, the hepatocyte CLint at 1 µM in data set [3] was found to be 4.9 µL/min/1e6 cells. Further, the hepatocyte CLint in data set [4] is 39 µL/min/1e6 cells. The concentration in solution in data set [5] (solubility) was 16 µM (≈ 8.44 µg/mL). In addition, in data set [6] (RXFP1 Hu cAMP), the “Test A Sinf” value was found to be 95%. The EC50 in data set [6] (setting [7]) turned out to be 460 nM.
`COc1cc(F)c(O[C@H]2CC[C@@](C)(C(=O)O)CC2)cc1C(=O)Nc1cc(Cl)ccc1C(=O)NCC1(C)CCC1` [Example 155, (1s,4s)-4-(5-((5-Chloro-2-(((1-methylcyclobutyl)methyl)carbamoyl)phenyl)carbamoyl)-2-fluoro-4-methoxyphenoxy)-1-methylcyclohexane-1-carboxylic acid]: the “Test B Human Plasma Protein Binding (% free)” value in data set [1] was 0.49 % free. Moreover, the microsomal CLint in data set [2] is 5.4 µL/min/mg. In data set [3], this compound had a hepatocyte CLint at 1 µM of 11 µL/min/1e6 cells. The compound further registered a hepatocyte CLint in data set [4] of 30 µL/min/1e6 cells. Further, the solubility in data set [5] worked out at 37 µM (≈ 20.8 µg/mL). In data set [6] (RXFP1 Hu cAMP), the “Test A Sinf” value is on record as 126%. For the same compound, the EC50 in data set [6] (setting [7]) stood at 8.4 nM.
Consider `COc1cc(F)c(O[C@H]2CC[C@@H](C(=O)O)CC2)cc1C(=O)N[C@@H]1[C@H]2CC[C@H](C2)[C@@H]1C(=O)Nc1ccc(F)c(C(F)(F)F)c1` [Example 179, (1S,4s)-4-(2-Fluoro-5-(((1S,2R,3S,4R)-3-((4-fluoro-3-(trifluoromethyl)phenyl)carbamoyl)bicyclo[2.2.1]heptan-2-yl)carbamoyl)-4-methoxyphenoxy)cyclohexane-1-carboxylic acid], for which the “Test B Human Plasma Protein Binding (% free)” value in data set [1] turned out to be 1 % free. Besides, the microsomal CLint in data set [2] was 42 µL/min/mg. Also, the hepatocyte CLint at 1 µM in data set [3] stood at 13 µL/min/1e6 cells. For the same compound, the hepatocyte CLint in data set [4] stood at 32 µL/min/1e6 cells. Besides, the solubility in data set [5] is over 800 µM. In addition, the “Test A Sinf” value in data set [6] (RXFP1 Hu cAMP) is 106%. In data set [6] (setting [7]), the EC50 was determined as 16 nM.
Take `COc1cc(F)c(O[C@H]2CC[C@@H](C(=O)O)CC2)cc1C(=O)N[C@@H]1[C@H]2CC[C@H](C2)[C@@H]1C(=O)NCC(C)(C)C` [Example 180, (1S,4s)-4-(2-Fluoro-4-methoxy-5-(((1S,2R,3S,4R)-3-(neopentylcarbamoyl)bicyclo[2.2.1]heptan-2-yl)carbamoyl)phenoxy)cyclohexane-1-carboxylic acid]: the “Test B Human Plasma Protein Binding (% free)” value in data set [1] stood at 14 % free. Also, the microsomal CLint in data set [2] turned out to be 6.8 µL/min/mg. The same compound had a hepatocyte CLint at 1 µM in data set [3] of 2.2 µL/min/1e6 cells. Moreover, in data set [4], the hepatocyte CLint was determined as 130 µL/min/1e6 cells. The solubility in data set [5] was over 1000 µM. Further, the “Test A Sinf” value in data set [6] (RXFP1 Hu cAMP) was found to be 100%. Further, the EC50 in data set [6] (Test A EC50, RXFP1 Hu cAMP) turned out to be 950 nM.

These data come from patent US11667602B2, “Compounds and their use” (AstraZeneca AB, priority 2020, dated 2023).
